For this assay, the system named is SK-N-BE(2)c derived xenograft tumors. The conditions noted are these: 30 mg/kg twice daily (BID) by oral gavages, vs vehicle.

Consider one molecule from patent US12054447B2, “PCNA inhibitors” (City of Hope, priority 2015, dated 2024).

Each structure is given as a SMILES string.

Consider `O=C(CNC(=O)c1cccc2ccccc12)Nc1ccccc1Oc1ccccc1` [AOH1160], for which the tumor burden entry is recorded as “significantly reduced tumor burden”.
